Assay results published in patent publication EP0108147B1, “Use of a protoberberine alkaloid and composition containing same” (MAROKO, Peter R., priority 1982, dated 1983).

Experiments:
dogs [1] = test: Supraventricular arrhythmias by topical application of aconitine to the atria; format: in vivo; settings: intraveneous bolus 1-5 mg/Kg; aconitine (0.04%) solution
[2] = system: patient with cardiomyopathy; test: Berberine in one patient with cardiomyopathy in irreversible cardiogenic shock; format: in vivo
Protocol: In the last two hours before berberine it was not measurable. […] Stroke volume was 20 ml and then 36 and then 36 ml.

dogs [3] = test: Lethal dose, repetitive intravenous boluses; settings: repetitive intravenous boluses within 4 hours
trained conscious dogs = test: Protocol F: multiple gated radionuclide ventriculography (MUGR), ejection fraction in conscious dogs without failing heart; format: in vivo
Protocol: To determine further the effects of berberine on patients, experiments were carried out on conscious dogs (Protocol F) and the measurement of left ventricular performance was assessed atraumatically using the multiple gated radionuclide ventriculography (MUGR) similarly to what is done in patients. The multiple gated radionuclide ventriculography is used in patients to assess their cardiac (i.e. left ventricular) performance by analyzing in an. atraumatic manner, the ejection fraction (EF) of the left ventricle. This technique substituted the analysis of ejection fraction by contrast angiography since the latter can be done only in the catheterization laboratory with the patient submitted to the introduction of catheters into his arteries and left ventricular cavity as well as an injection of a radio-opaque dye. MUGR consists in using red blood cells labelled with stannous radioactive technetium. These red blod cells can be labelled either in vivo or in vitro prior to injection. The blood that is now emitting gamma radiation can be detected by an external gamma camera. This device can sum many cycles of the heart beat obtaining an average cycle. Then this cycle is divided in time intervals so that, as an example, the end systolic and the end diastolic frames can be identified. Ejection fraction is the end distolic minus the end systolic volumes divided by the end diastolic volume. It indicates therefore the pumping effectiveness of the left ventricle since it measures the fraction (or the percent if multiplied by 100) of the volume of blood that is expelled from the left ventricular cavity. Experiments were carried out in trained conscious dogs. 14.8.108 Bg (40 mCi) of […] used to label red blood cells that were then injected intravenously. […] The images were acquired using fixed density of the left ventricle. They were measured in quadruplicate and averaged. The external gamma camera used was Ohio Nuclear (model VIP 560).

[4] = system: patients with heart failure; test: Intravenous berberine in patients with heart failure, catheterization laboratory; format: in vivo
Protocol: Berberine HCI was used in patients with heart failure. […] The observations were done in a catheterization laboratory. […] Heart rate decreased in two patients and increased in one. On the average it decreased from 82 to 76 beats/min after 0.02 mg/kg/min and to 79 after 0.2 mg/kg/min. […] It is very impressive that in one patient it fell from 21 to 11 and then to 9 mmHg. Aortic systolic pressure fell from 115 mmHg to 104 and then to 108 mmHg. Aortic diastolic pressure fell from 78 to 68 and then to 67 mmHg. Aortic mean pressure fell from 93 to 80 to 84 mmHg. This is a mild fall in mean aortic pressure. […] These are very marked increases in cardiac output and cardiac index. […] These increases are again very remarkable. […] Thus, the 5 last […] indicated the profound aemelioration in ventricular performance. […] Contractility was evaluated by the indices LV-V max (left ventricular maximal shortening velocity of the contractile element) and LV-VPM (left ventricular peak measured shortening velocoty of the contracile elements).

[5] = system: dogs with acute left ventricular failure; test: MUGR ejection fraction in dogs with acute left ventricular failure after coronary embolization; format: in vivo; settings: for EF: 0.2 mg/Kg/min
Protocol: Nevertheless, to verify the response of dogs with acute heart failure with this sophisticated technique, this condition was provoked by previous embolization into the left coronary artery (as described below in protocol HV). thereafter, the effect of berberine infusion was analyzed after embolization. […] Berberine was infused in a rate of 0.2 mg/Kg/min for 30 minutes and MUGR was repeated after 2, 15, 22 and 28 minutes of infusion.
Six dogs were studied using this technique (Table XV). […] The thirty minute infusion of berberine (0.2 mg/Kg/min) was administered. During this period four radionuclide ventriculographies were obtained and averaged. After discontinuation of the infusion again four radionuclide ventriculographies were obtained in the next thirty minutes and averaged.

NaK-ATPase = settings: Cohen et al., Biochem. Pharmacol. 27: 2555-2558, 1978; cited from earlier work
LD50, intravenous bolus = settings: rat, in vivo
[6] = system: chronically instrumented conscious dogs; test: Oral administration in chronically instrumented conscious dogs; format: in vivo
[7] = second dog (Figure VI), after 15 minutes

COc1ccc2cc3[n+](cc2c1OC)CCc1cc2c(cc1-3)OCO2 [berberine]
atrial ectopic beats, atrial tachycardia or atrial fibrillation (dogs [1]): effective in abolishing these arrhythmias
cardiac output ([2]; 0.2 and 0.4 mg/kg/min, after 30 minutes, from 1.2): 3.5 L/min
increase of cardiac output ([2]; after 30 minutes): 192%
cardiac output ([2]; after 90 minutes): 2.2 L/min
increase of cardiac output ([2]; after 90 minutes): 82%
Stroke volume ([2]; first value after berberine, from 20 ml): 36 mL
Stroke volume ([2]; second value after berberine): 36 mL
average dose resulting in death due to arterial systemic hypotension (dogs [3]): 120 mg/kg
ejection fraction (EF), average (trained conscious dogs; one dog, after first infusion): 44 ± 2%
ejection fraction (EF), average (trained conscious dogs; one dog, after second infusion): 40 ± 2%
increase of EF versus the pre-berberine period (trained conscious dogs; one dog, first infusion): 33%
ejection fraction (EF) (trained conscious dogs; one dog, first infusion 0.7 mg/Kg/min 5 minutes, 1st reading (5 min), pre-berberine 33 ± 2): 46%
ejection fraction (EF) (trained conscious dogs; one dog, first infusion, 2nd reading (15 min)): 47%
ejection fraction (EF) (trained conscious dogs; one dog, first infusion, 3rd reading (30 min)): 44%
ejection fraction (EF) (trained conscious dogs; one dog, first infusion, 4th reading (45 min)): 38%
ejection fraction (EF) (trained conscious dogs; one dog, second infusion, 1st reading): 46%
ejection fraction (EF) (trained conscious dogs; one dog, second infusion, 2nd reading): 37%
ejection fraction (EF) (trained conscious dogs; one dog, second infusion, 3rd reading): 40%
ejection fraction (EF) (trained conscious dogs; one dog, second infusion, 4th reading): 38%
ejection fraction (trained conscious dogs; second dog (Figure VI), 0.7 mg/Kg/min for 15 minutes, 1st reading, from 50): 54%
ejection fraction (trained conscious dogs; second dog (Figure VI), 2nd reading): 65%
ejection fraction (trained conscious dogs; [7]): 70%
increase of ejection fraction (trained conscious dogs; [7]): 40%
side effects ([4]; 0.002 mg/kg/min 30 minutes then 0.02 mg/kg/min 30 minutes, 3 patients): without untoward side effects
side effects ([4]; 0.2 mg/kg/min, one patient): without untoward side effects
side effects ([4]; 3 patients with cardiomyopathy, 0.02 then 0.2 mg/kg/min, 15 minutes each): None of the patients had side effects
cardiac index ([4]; after 0.02 mg/kg/min, from 2.9): 3.7 fiters/min/m^2
cardiac output ([4]; after 0.02 mg/kg/min, from 5.1): 6.6 L/min
Left ventricular end diastolic pressure ([4]; after 0.02 mg/kg/min, from 22): 16 mmHg
ejection fraction ([4]; after 0.02 mg/kg/min, from 32): 36%
stroke index ([4]; after 0.02 mg/kg/min, from 36): 50 ml/m^2
Stroke volume ([4]; after 0.02 mg/kg/min, from 62): 89 mL
Aortic diastolic pressure ([4]; after 0.02 mg/kg/min, from 78): 68 mmHg
Heart rate, average ([4]; after 0.02 mg/kg/min, from 82): 76 beats/min
Aortic mean pressure ([4]; after 0.02 mg/kg/min, from 93): 80 mmHg
Aortic systolic pressure ([4]; after 0.02 mg/kg/min, from 115): 104 mmHg
Left ventricular systolic pressure ([4]; after 0.02 mg/kg/min, from 116): 106 mmHg
Calculated systemic peripheral resistance ([4]; after 0.02 mg/kg/min, from 1339): 883 10^-5N·S·cm^-5
Aortic diastolic pressure ([4]; after 0.2 mg/kg/min): 67 mmHg
Aortic mean pressure ([4]; after 0.2 mg/kg/min): 84 mmHg
Aortic systolic pressure ([4]; after 0.2 mg/kg/min): 108 mmHg
Calculated systemic peripheral resistance ([4]; after 0.2 mg/kg/min): 794 10^-5N·S·cm^-5
Heart rate, average ([4]; after 0.2 mg/kg/min): 79 beats/min
Left ventricular end diastolic pressure ([4]; after 0.2 mg/kg/min): 15 mmHg
Left ventricular systolic pressure ([4]; after 0.2 mg/kg/min): 110 mmHg
Stroke volume ([4]; after 0.2 mg/kg/min): 102 mL
cardiac index ([4]; after 0.2 mg/kg/min): 4.2 fiters/min/m^2
cardiac output ([4]; after 0.2 mg/kg/min): 7.4 L/min
ejection fraction ([4]; after 0.2 mg/kg/min): 40%
stroke index ([4]; after 0.2 mg/kg/min): 58 ml/m^2
LV-VPM (left ventricular peak measured shortening velocoty of the contracile elements) ([4]; after berberine, from 0.7): 0.9
LV-V max (left ventricular maximal shortening velocity of the contractile element) ([4]; after berberine, from 0.9): 1.1
Left ventricular end diastolic pressure ([4]; one patient, after 0.02 mg/kg/min, from 21): 11 mmHg
Left ventricular end diastolic pressure ([4]; one patient, after 0.2 mg/kg/min): 9 mmHg
EF ([5]; another dog, at 2, 39 after embolization): 60%
EF ([5]; another dog, at 15): 62%
EF ([5]; one dog, 2 minutes of infusion, 27 after embolization): 35%
EF ([5]; one dog, 15 minutes): 37%
EF ([5]; one dog, 22 minutes): 39%
EF ([5]; one dog, 28 minutes): 38%
increase of EF ([5]; six dogs): ~50%
left ventricular ejection fraction (EF) ([5]; six dogs, during 30 minute infusion 0.2 mg/Kg/min, from 27 ± 3): 40 ± 3%
EF after the discontinuation of infusion ([5]; six dogs, next half an hour): continued to be significantly elevated
inhibition of NaK-ATPase activity (NaK-ATPase): inactive
LD50 (LD50, intravenous bolus): ~55 mg/kg

COc1cc2c(cc1O)C[C@H]1c3cc(O)c(OC)cc3CCN1C2 [coreximine]
oral effects compared with berberine ([6]; dog, in vivo, po): more marked than those of berberine
increase of LV dP/dt ([6]; oral 5 mg/kg twice daily, after the first day): 25%
